Data reported in ChEMBL document CHEMBL4402589, “Discovery of a Potent and Selective NF-κB-Inducing Kinase (NIK) Inhibitor That Has Anti-inflammatory Effects in Vitro and in Vivo” (J Med Chem, 2020).
pIC50, pKd: −log10 of the molar value. Activity calls are given as the source filed them. No cut-off for these calls is given here.

Assays:
[1] = molecular target: T1, Mitogen-activated protein kinase kinase kinase 14 (Homo sapiens, UniProt Q99558); experiment: Inhibition of recombinant human N-terminal GST-tagged NIK (318 to 947 residues) expressed in baculovirus infected Sf9 cells using ultrapure ATP as substrate measured after 1 hr by ADP-glo assay
Mus musculus [2] = experiment: (§1) Antiinflammatory activity in CCl4-induced C57BL/6 mouse model of liver injury assessed as reduction in CCL2 mRNA expression in liver at 40 mg/kg, po administered 30 mins prior to CCl4 addition followed by compound redosing at 3 hrs interval for 9 hrs and measured 12 hrs […] by SYBR staining based RT-qPCR analysis; type: functional, organism-based
[3] = Stability of the compound in pH 1 aqueous solution; type: physicochemical; conditions: buffer
[4] = Apparent volume of distribution in ICR mouse at 5 mg/kg, iv by LC-MS/MS analysis; type: ADME, organism-based; conditions: in vivo, read-out: Vz
[5] = Cmax in ICR mouse at 15 mg/kg, po by LC-MS/MS analysis; type: ADME, organism-based; design: dose 15 mg/kg, route oral; conditions: in vivo
Mus musculus [6] = experiment: as §1, with “immune cell infiltration” for “CCL2 mRNA expression”, “F4/80/DAPI” for “SYBR”, “immunofluorescence assay” for “RT-qPCR analysis”; type: functional, organism-based
Hepatocyte [7] = experiment: Down regulation of NIK expression in NIK/p100 adenoviruses infected C57BL/6 mouse primary hepatocytes at 1 to 10 uM measured after 16 hrs by Western blot analysis; type: functional, cell-based
[8] = molecular target: Mitogen-activated protein kinase kinase kinase 14 (Mus musculus) (UniProt Q9WUL6); experiment: Inhibition of NIK in NIK/p100 adenoviruses infected C57BL/6 mouse primary hepatocytes assessed as suppression of NIK-mediated proteolysis of p100 to p52 by measuring reduction in p52 level measured after 16 hrs by Western blot analysis
Mus musculus [9] = experiment: as §1, with “NOS2” for “CCL2”; type: functional, organism-based
[10] = Cmax in ICR mouse at 5 mg/kg, iv by LC-MS/MS analysis; type: ADME, organism-based; design: dose 5 mg/kg, route intravenous; conditions: in vivo
[11] = molecular target: Mitogen-activated protein kinase kinase kinase 14 (Mus musculus) (UniProt Q9WUL6); experiment: Inhibition of NIK in NIK adenovirus infected C57BL/6 mouse primary hepatocytes assessed as reduction in CXCL5 mRNA expression measured after 16 hrs by SYBR staining based RT-qPCR analysis
[12] = Clearance in ICR mouse at 5 mg/kg, iv by LC-MS/MS analysis; type: ADME, organism-based; conditions: in vivo
[13] = Tmax in ICR mouse at 5 mg/kg, iv by LC-MS/MS analysis; type: ADME, organism-based; conditions: in vivo
[14] = molecular target: T1, Mitogen-activated protein kinase kinase kinase 14; experiment: Binding affinity to wild-type human partial length NIK (L318 to P947 residues) expressed in mammalian expression system by Kinomescan method
Mus musculus [15] = experiment: as §1, with “CCL5” for “CCL2”; type: functional, organism-based
[16] = Tmax in ICR mouse at 15 mg/kg, po by LC-MS/MS analysis; type: ADME, organism-based; conditions: in vivo
[17] = Oral bioavailability in ICR mouse at 15 mg/kg by LC-MS/MS analysis; type: ADME, organism-based; conditions: in vivo
[18] = molecular target: Mitogen-activated protein kinase kinase kinase 14 (Mus musculus) (UniProt Q9WUL6); experiment: Inhibition of NIK in NIK adenovirus infected C57BL/6 mouse primary hepatocytes assessed as reduction in CCL5 mRNA expression measured after 16 hrs by SYBR staining based RT-qPCR analysis
[19] = molecular target: Mitogen-activated protein kinase kinase kinase 14 (Mus musculus) (UniProt Q9WUL6); experiment: Inhibition of NIK in NIK adenovirus infected C57BL/6 mouse primary hepatocytes assessed as reduction in CCL2 mRNA expression measured after 16 hrs by SYBR staining based RT-qPCR analysis
[20] = molecular target: Mitogen-activated protein kinase kinase kinase 14 (Mus musculus) (UniProt Q9WUL6); experiment: Inhibition of NIK in NIK adenovirus infected C57BL/6 mouse primary hepatocytes assessed as reduction in NOS2 mRNA expression measured after 16 hrs by SYBR staining based RT-qPCR analysis
[21] = Half life in ICR mouse at 5 mg/kg, iv by LC-MS/MS analysis; type: ADME, organism-based; conditions: in vivo
[22] = molecular target: Mitogen-activated protein kinase kinase kinase 14 (Mus musculus) (UniProt Q9WUL6); experiment: Inhibition of NIK in NIK adenovirus infected C57BL/6 mouse primary hepatocytes assessed as reduction in TNFalpha mRNA expression measured after 16 hrs by SYBR staining based RT-qPCR analysis
[23] = Half life in ICR mouse at 15 mg/kg, po by LC-MS/MS analysis; type: ADME, organism-based; conditions: in vivo
Mus musculus [24] = experiment: Antiinflammatory activity in CCl4-induced C57BL/6 mouse model of liver injury assessed as reduction in serum ALT level at 40 mg/kg, po administered 30 mins prior to CCl4 addition followed by compound redosing at 3 hrs interval for 9 hrs and measured 12 hrs […]; type: functional, organism-based
[25] = AUC (0 to t) in ICR mouse at 15 mg/kg, po by LC-MS/MS analysis; type: ADME, organism-based; conditions: in vivo
[26] = AUC (0 to t) in ICR mouse at 5 mg/kg, iv by LC-MS/MS analysis; type: ADME, organism-based; conditions: in vivo
Mus musculus [27] = experiment: as §1, with “TNFalpha” for “CCL2”; type: functional, organism-based
Mus musculus [28] = experiment: as §1, with “CXCL5” for “CCL2”; type: functional, organism-based
[29] = Oral bioavailability in ICR mouse; type: ADME, organism-based; conditions: in vivo
Hepatocyte [30] = experiment: Down regulation of NIK expression in NIK/p100 adenoviruses infected C57BL/6 mouse primary hepatocytes at 5 uM measured after 16 hrs by Western blot analysis; type: functional, cell-based
[31] = molecular target: Mitogen-activated protein kinase kinase kinase 14 (Mus musculus) (UniProt Q9WUL6); experiment: Inhibition of NIK in NIK/p100 adenoviruses infected C57BL/6 mouse primary hepatocytes assessed as suppression of NIK-mediated proteolysis of p100 to p52 by measuring reduction in p52 level at 5 uM measured after 16 hrs by Western blot analysis
Mus musculus [32] = experiment: Antiinflammatory activity in CCl4-induced C57BL/6 mouse model of liver injury assessed as reduction in immune cell infiltration in liver at 25 mg/kg, po administered 30 mins prior to CCl4 addition followed by compound redosing at 3 hrs interval for 9 hrs and measured 12 hrs […] by F4/80/DAPI staining based immunofluorescence assay; type: functional, organism-based
[33] = molecular target: T1, Mitogen-activated protein kinase kinase kinase 14; experiment: Inhibition of human NIK using ATP as substrate by kinase-glo assay

Mitogen-activated protein kinase kinase kinase 14 (Mus musculus), sequence (Q9WUL6 whole entry): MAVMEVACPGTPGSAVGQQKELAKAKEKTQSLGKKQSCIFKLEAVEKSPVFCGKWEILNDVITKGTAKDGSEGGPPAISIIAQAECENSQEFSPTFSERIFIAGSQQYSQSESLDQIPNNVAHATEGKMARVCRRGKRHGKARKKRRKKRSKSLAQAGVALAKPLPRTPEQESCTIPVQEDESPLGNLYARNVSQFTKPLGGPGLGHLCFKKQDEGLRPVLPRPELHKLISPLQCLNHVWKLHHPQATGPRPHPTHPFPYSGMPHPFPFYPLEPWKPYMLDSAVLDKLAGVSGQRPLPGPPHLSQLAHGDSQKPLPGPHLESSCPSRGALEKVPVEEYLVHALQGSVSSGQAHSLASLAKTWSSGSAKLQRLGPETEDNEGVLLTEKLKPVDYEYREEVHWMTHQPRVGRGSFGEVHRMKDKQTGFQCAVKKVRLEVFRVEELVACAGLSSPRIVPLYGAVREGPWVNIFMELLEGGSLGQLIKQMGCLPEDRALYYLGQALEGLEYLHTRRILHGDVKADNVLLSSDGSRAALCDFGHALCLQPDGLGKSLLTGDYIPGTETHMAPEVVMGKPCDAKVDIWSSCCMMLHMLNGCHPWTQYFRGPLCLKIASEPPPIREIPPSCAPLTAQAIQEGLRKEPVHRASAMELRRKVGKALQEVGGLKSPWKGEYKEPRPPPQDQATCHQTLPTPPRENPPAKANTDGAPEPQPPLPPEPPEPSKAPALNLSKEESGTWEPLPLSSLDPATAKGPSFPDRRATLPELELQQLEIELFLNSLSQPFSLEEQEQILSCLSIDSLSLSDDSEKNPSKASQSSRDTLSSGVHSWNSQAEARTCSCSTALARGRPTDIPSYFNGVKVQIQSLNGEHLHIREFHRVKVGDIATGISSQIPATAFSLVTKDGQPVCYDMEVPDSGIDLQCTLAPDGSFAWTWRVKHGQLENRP
T1 sequence (Q99558 whole entry, the tested form may be a part): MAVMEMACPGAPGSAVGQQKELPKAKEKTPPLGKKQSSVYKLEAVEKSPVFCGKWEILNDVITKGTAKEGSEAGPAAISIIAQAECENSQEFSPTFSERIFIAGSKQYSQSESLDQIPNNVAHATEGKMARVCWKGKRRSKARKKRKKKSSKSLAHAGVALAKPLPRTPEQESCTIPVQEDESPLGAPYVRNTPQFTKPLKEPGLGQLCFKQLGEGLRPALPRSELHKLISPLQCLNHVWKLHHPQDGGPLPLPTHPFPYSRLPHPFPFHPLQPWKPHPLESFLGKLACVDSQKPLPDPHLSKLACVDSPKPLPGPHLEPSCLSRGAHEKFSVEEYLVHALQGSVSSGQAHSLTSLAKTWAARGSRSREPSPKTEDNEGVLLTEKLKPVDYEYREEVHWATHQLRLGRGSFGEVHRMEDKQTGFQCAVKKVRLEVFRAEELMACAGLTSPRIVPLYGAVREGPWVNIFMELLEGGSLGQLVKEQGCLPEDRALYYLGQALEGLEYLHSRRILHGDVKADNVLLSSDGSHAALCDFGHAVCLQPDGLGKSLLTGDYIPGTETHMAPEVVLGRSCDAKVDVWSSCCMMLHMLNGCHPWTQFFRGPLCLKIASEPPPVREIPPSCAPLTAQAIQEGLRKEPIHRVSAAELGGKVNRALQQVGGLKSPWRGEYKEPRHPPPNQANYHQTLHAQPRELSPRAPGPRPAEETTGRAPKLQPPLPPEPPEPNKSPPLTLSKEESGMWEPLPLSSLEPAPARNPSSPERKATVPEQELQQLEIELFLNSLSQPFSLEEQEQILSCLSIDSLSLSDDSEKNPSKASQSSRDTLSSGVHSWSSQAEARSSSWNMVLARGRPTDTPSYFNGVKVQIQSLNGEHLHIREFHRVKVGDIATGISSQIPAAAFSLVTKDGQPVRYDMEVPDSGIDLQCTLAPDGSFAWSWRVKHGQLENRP

Work on `COc1cccc(C(C)(O)C#Cc2cccc(-c3c[nH]c4cnc(N)nc34)c2)n1` (configuration not stated) yielded a pIC50 [1] of under 5.00.

With `CC(O)(C#Cc1cc(-n2ccc3cnc(N)nc32)ccc1F)c1nccs1` (configuration not stated) the pIC50 [1] was 6.69.

For `CN(C)C(=O)c1ccc(-n2ccc3cnc(N)nc32)cc1C#CC(C)(O)c1nccs1` (configuration not stated), the pIC50 [1] was under 5.00.

In the case of `CC(O)(C#Cc1cncc(-n2ccc3cnc(N)nc32)c1)c1nccs1` (configuration not stated), the pIC50 [1] was 5.73.

In the case of `CC(O)(C#Cc1cccc(-c2c[nH]c3cnc(N)nc23)c1)c1cnccn1` (configuration not stated), the pIC50 [1] was 6.33.

`CC(O)(C#Cc1ccc(F)c(-n2ccc3cnc(N)nc32)c1)c1nccs1` (configuration not stated) showed a pIC50 [1] of 6.67.

`CC(O)(C#Cc1cccc(-c2c[nH]c3cnc(N)nc23)c1F)c1nccs1` (configuration not stated) gave a pIC50 [1] of 4.96.

Work on `COCCOc1ccc(-n2ccc3cnc(N)nc32)cc1C#CC(C)(O)c1nccs1` (configuration not stated) yielded a pIC50 [1] of 4.59.

`Nc1ncc2ccn(-c3ccnc(C#CC4(O)CCCCC4)c3)c2n1` gave a pIC50 [1] of 5.80.

Molecule `COc1ccc(C#CC(C)(O)c2nccs2)cc1-c1c[nH]c2cnc(N)nc12` (configuration not stated) has a pIC50 [1] of 6.92.

For `C[C@@](O)(C#Cc1ccc(F)c(-c2c[nH]c3cnc(N)nc23)c1)c1nccs1`, the Activity (Mus musculus [2]) was “Active”, the Stability [3] was “Stable” and the Vd [4] was 26 L/kg. For the same molecule, the Cmax [5] was 510 ng/mL, the Activity (Mus musculus [6]) was “Active” and the Activity (Hepatocyte [7]) was “inactive”. The inhibition [8] was “Dose-dependent effect”, the Activity (Mus musculus [9]) was “Active” and the Cmax [10] was 3040 ng/mL. For the same molecule, the inhibition [11] was “Dose-dependent effect”, the clearance [12] was 92.4 mL/min/kg and the Tmax [13] was 4.8 min. The pKd [14] was 8.31, the Activity (Mus musculus [15]) was “Active” and the Tmax [16] was 18 min. For the same molecule, the bioavailability [17] was 13%, the inhibition [18] was “Dose-dependent effect” and the inhibition [19] was “Dose-dependent effect”. For the same molecule, the pIC50 [1] was 8.04, the inhibition [20] was “Dose-dependent effect” and the half-life [21] was 197 min. For the same molecule, the inhibition [22] was “Dose-dependent effect”, the half-life [23] was 720 min and the Activity (Mus musculus [24]) was “Active”. The AUC(0-t) [25] was 348 ng·h/mL, the AUC(0-t) [26] was 891 ng·h/mL and the Activity (Mus musculus [27]) was “Active”. The Activity (Mus musculus [28]) was “Active”.

With `CN(C)CCOc1ccc(-n2ccc3cnc(N)nc32)cc1C#CC(C)(O)c1nccs1` (configuration not stated) the pIC50 [1] was under 5.00.

With `CN1CCC(O)(C#Cc2ccc(F)c(-c3c[nH]c4cnc(N)nc34)c2)C1=O` (configuration not stated) the bioavailability [29] was 7%, the Stability [3] was “Stable” and the pIC50 [1] was 8.23.

For `Nc1ncc2ccn(-c3ccnc(C#CC4(O)CCCC4)c3)c2n1`, the pIC50 [1] was 6.63.

`CN1CCC(O)(C#Cc2cc(-n3ccc4ccc(N)nc43)ccn2)C1=O` (configuration not stated) gave a pIC50 [1] of 5.61.

Molecule `COc1cc(C#CC(C)(O)c2nccs2)cc(-c2c[nH]c3cnc(N)nc23)c1` (configuration not stated) has a pIC50 [1] of 6.54.

`Nc1ncc2ccn(-c3ccnc(C#CC4(O)CCNCC4)c3)c2n1` gave a pIC50 [1] of under 5.00.

`CNc1ccc(-n2ccc3cnc(N)nc32)cc1C#CC(C)(O)c1nccs1` (configuration not stated) gave a pIC50 [1] of under 5.00.

With `CN1CCC(O)(C#Cc2cc(-n3ccc4cnc(N)nc43)ccn2)C1=O` (configuration not stated) the bioavailability [29] was under 1% and the pIC50 [1] was 7.58.

Molecule `COc1nc(N)nc2c1ccn2-c1cccc(C#CC(C)(O)c2nccs2)c1` (configuration not stated) has a pIC50 [1] of 5.60.

Work on `Nc1ncc2ccn(-c3ccnc(C#CC4(O)CCC4)c3)c2n1` yielded a pIC50 [1] of 6.41.

In the case of `Nc1ncc2[nH]cc(-c3cccc(C#CC4(O)CCCC4)c3)c2n1`, the pIC50 [1] was 6.32.

With `CCc1nc(N)nc2c1ccn2-c1ccnc(C#CC2(O)CCN(C)C2=O)c1` (configuration not stated) the pIC50 [1] was 6.72.

Work on `CC(O)(C#Cc1cccc(-n2cc(Cl)c3cnc(N)nc32)c1)c1nccs1` (configuration not stated) yielded a pIC50 [1] of 5.69.

With `C[C@@](O)(C#Cc1ccc2c(c1)N(c1nc(N)ncc1Cl)CC2)c1nccs1` the Activity (Hepatocyte [30]) was “inactive”, the inhibition [31] was “Active” and the Activity (Mus musculus [32]) was “Active”. For the same molecule, the pIC50 [1] was 7.82 and the pIC50 [33] was 8.38.

For `CC(O)(C#Cc1cc(-n2ccc3cnc(N)nc32)ccn1)c1cnccn1` (configuration not stated), the pIC50 [1] was 5.79.

`CC(O)(C#Cc1cccc(-n2ccc3cnc(N)nc32)c1)c1nccs1` (configuration not stated) showed a pIC50 [1] of 6.52.

For `CC(O)(C#Cc1cccc(-c2c[nH]c3cnc(N)nc23)c1)c1nccs1` (configuration not stated), the pIC50 [1] was 6.66.
